Like-named read-outs stand apart in the source and are kept apart here.
B1: H399W: human Kv1.3 channel mutated to express tryptophan at position 399 instead of histidine (SEQ ID NO: 2), expressed from pIRES2-EGFP (protein)
chain: MTVVPGDHLLEPEVADGGGAPPQGGCGGGGCDRYEPLPPSLPAAGEQDCCGERVVINISGLRFETQLKTLCQFPETLLGDPKRRMRYFDPLRNEYFFDRNRPSFDAILYYYQSGGRIRRPVNVPIDIFSEEIRFYQLGEEAMEKFREDEGFLREEERPLPRRDFQRQVWLLFEYPESSGPARGIAIVSVLVILISIVIFCLETLPEFRDEKDYPASTSQDSFEAAGNSTSGSRAGASSFSDPFFVVETLCIIWFSFELLVRFFACPSKATFSRNIMNLIDIVAIIPYFITLGTELAERQGNGQQAMSLAILRVIRLVRVFRIFKLSRHSKGLQILGQTLKASMRELGLLIFFLFIGVILFSSAVYFAEADDPTSGFSSIPDAFWWAVVTMTTVGNSYGDMWPVTIGGKIVGSLCAIAGVLTIALPVPVIVSNFNYFYHRETEGEEQSQYMHVGSCQHLSSSAEELRKARSNSTLSKSEYMVIEEGGMNHSAFPQTPFKTGNSTATCTTNN
modifications: A recombinant polypeptide having the H399W mutation

Columns and labels:
[1] = test system: NIH/3T3 fibroblasts cell line; assay: Whole-cell patch clamp of transfected NIH/3T3 cells; type: cell-based, Mouse; conditions: stably transfected NIH/3T3 cells; for inactivation character of potassium current: FIG. 7 and FIG. 8; for potassium current amplitude: whole-cell voltage clamp, room temperature
Experimental: Mouse fibroblasts cell line (NIH/3T3, ATCC ACCESSION NO. CRL-6361):
(§1) Voltage clamp assay was used to test the expression and function of the over-expressed channels.
Selection was done using Neomycin sulfate (G418) antibiotic (Gibco Catalog No. 11811-031) which was added to the growth medium ([…]). Clones were isolated using cloning ring and cultured into 24 well plate (corning Catalog No. 3524). For expansion, confluent wells were transferred to six well plates and then to 100 mm culture dish (Corning Catalog No. 430167DMEM-complete+G418 10% FCS was thereafter replaced every 72 to 96 hours.
Total cell protein was extracted from the various clones using 300 μl cold RIPA buffer (with supplements; RIPA lysis buffer, 1× Santa Cruz Biotechnology, Catalog No. 24948) and screened by western blot analysis with rabbit anti-Kv1.3 antibody (CHEMICON, Catalog No. AB5178). Colonies that tested western blot positive were then analyzed by voltage clamp.
(§2) Patch clamp recordings—Voltage-clamp recordings were performed using the whole-cell patch clamp technique. All measurements were done at room temperature. Patch pipettes (2-4 MΩ) were prepared from glass capillary tubes (Jencons Catalog No. 687-055) using a double-stage puller (Narishige pp-830). Currents were recorded with an Axon Instruments amplifier (Axopatch 200), digitized by DigiData 1322A digitizer (Axon instruments). Data was analyzed using pCLAMP software (version 8.0). Bath solution for the whole-cell recordings contained (in mM): 140 NaCl, 3 KCl, 2 CaCl2, 2 MgCl2, 10 Glucose and 10 HEPES (pH 7.4). Pipette solution for the whole-cell recordings (in mM): 140 KCl, 10 Na2 ATP, 1 CaCl2, 1 MgCl2, 10 EGTA and 5 HEPES (pH 7.4). Currents were elicited by 200 ms pulses from holding potential of −80 mV to −90 mv and then to 110 mV in increments of 20 mV.

[2] = test system: Human dermal fibroblasts; assay: Whole-cell patch clamp of transfected human dermal fibroblasts; type: cell-based; conditions: for potassium current amplitude: 7-20 days after nucleoporation, 12 cells per construct; for character of potassium current: FIG. 9 and FIG. 10
Source text: as §1
The protocol is using Collagenase type 1 (Worthington Biochemical Corp., Lakewood, N.J., cat. LS004196, lot.X4J7447) for extractions of cells from a tissue. Primary cultures were generated by seeding in flasks with growth Medium: DMEM+HEPES (ADCF) with phenol red (HyClone part no SH3A1534.01, Lot no ANM20173 custom made for biogenics, L.T.D). Medium was supplemented with 10% FBS defined (HyClone; Cat no: SH30072.03; Lot no: APD21173); ITS+1 liquid media supplement (sigma # I-2521); Gentamycin 50 μg ml (Beit ha'emek; cat no#03-035-1) and Amphotericin B 2.5 μg ml (Beit ha'emek; Catalog No. 03-029-1).
Five days prior to transfection, cells were seeded in 150 cm^2 flasks. Medium was changed every 3 days. Cells reached 90% confluence in the day of the transfection.
For expression of the wt and mutation constructs in human dermal fibroblasts, Amaxa Nucleofector (Amaxa biosystem) and Human Dermal Fibroblast (NHDF) Nucleofector kit (Catalog No. VPD-1001) were used. Nucleofection was done according to the protocol of the manufacturer. Cells from passage 1-5 were used. The expression was characterized using fluorescent microscopy and the patch clamp technique. Seven days after nucleofection patch clamp analysis were performed.
as §2

[3] = wild type, from Marom et al. 1995; cited from earlier work
[4] = Transition rate of the channel from open to inactivation; conditions: H399W mutant

Row | Molecule | inactivation character of potassium current [1] | potassium current amplitude [1] | potassium current amplitude [2] | character of potassium current [2] | transition rate from open to inactivation [3] | transition rate from open to inactivation [4]
1 | wild type Kv1.3: wild type human Kv1.3 voltage-gated potassium channel (SEQ ID NO: 4, GenBank AAC31761, KCNA3) | slowly inactivated | 200-1500 pA | 600-2500 pA | typical potassium | 0.0074 | –
2 | B1 | fast inactivated | 150-1800 pA | 400-1200 pA | fast inactivated | – | 0.025

From US8101736B2, “Polynucleotides and polypeptide of human KV1.3, compositions comprising same and methods of using same” (GeneGrafts Ltd., priority 2005, dated 2012)
